Here are results for 48 compounds from US20140094465A1, “Compounds as S-Nitrosoglutathione Reductase Inhibitors” (N30 PHARMACEUTICALS, INC., priority 2011, published 2014).

Some results are limits rather than exact numbers.

In one experiment the target is T1, S-nitrosoglutathione reductase (GSNOR) (Homo sapiens, UniProt P11766).
T1 construct: made in house; host or cells: E. coli
T1 sequence (P11766 whole entry): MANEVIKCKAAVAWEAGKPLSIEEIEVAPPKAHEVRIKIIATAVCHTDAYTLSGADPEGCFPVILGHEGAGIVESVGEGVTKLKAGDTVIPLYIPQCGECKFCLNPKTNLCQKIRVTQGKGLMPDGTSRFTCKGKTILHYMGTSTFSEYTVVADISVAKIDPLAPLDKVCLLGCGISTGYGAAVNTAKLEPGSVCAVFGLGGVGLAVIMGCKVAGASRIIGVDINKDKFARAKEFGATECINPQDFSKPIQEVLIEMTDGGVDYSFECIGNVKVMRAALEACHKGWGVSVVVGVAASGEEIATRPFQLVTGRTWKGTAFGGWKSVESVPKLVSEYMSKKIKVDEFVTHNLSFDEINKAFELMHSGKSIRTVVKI
As to the kind of experiment: GSNOR assay (inhibition of GSNOR activity, NADH absorbance at 340 nm). Type of experiment: biochemical. Particulars: GSNOR inhibitor activity, Tables 1-6; read-out: IC50 range. How it is done:
Various compounds were tested in vitro for their ability to inhibit GSNOR activity.
GSNOR expression and purification is described in Biochemistry 2000, 39, 10720-10729.
Pre-cultures were grown from stabs of a GSNOR glycerol stock in 2XYT media containing 100 ug/ml ampicillin after an overnight incubation at 37° C. […] GSNOR expression was induced with 0.1% arabinose in an overnight incubation at 20° C.
E. coli cell paste was lysed by nitrogen cavitation and the clarified lysate purified by Ni affinity chromatography on an AKTA FPLC (Amersham Pharmacia). The column was eluted in 20 mM Tris pH 8.0/250 mM NaCl with a 0-500 mM imidazole gradient. Eluted GSNOR fractions containing the Smt-GSNOR fusion were digested overnight with Ulp-1 at 4° C. to remove the affinity tag then re-run on the Ni column under the same conditions. GSNOR was recovered in the flowthrough fraction and for crystallography is further purified by Q-Sepharose and Heparin flowthrough chromatography in 20 mM Tris pH 8.0, 1 mM DTT, 10 uM ZnSO4.
GSNOR assay: GSNO and enzyme/NADH Solutions are made up fresh each day. The solutions are filtered and allowed to warm to room temperature. GSNO solution: 100 mM NaPO4 (pH 7.4), 0.480 mM GSNO. 396 μL of GSNO Solution is added to a cuvette followed by 8 μL of test compound in DMSO (or DMSO only for full reaction control) and mixed with the pipette tip. Compounds to be tested are made up at a stock concentration of 10 mM in 100% DMSO. 2 fold serial dilutions are done in 100% DMSO. 8 μL of each dilution are added to an assay so that the final concentration of DMSO in the assay is 1%. The concentrations of compounds tested range from 100 to 0.003 μM. Enzyme/NADH solution: 100 mM NaPO4 (pH 7.4), 0.600 mM NADH, 1.0 μg/mL GSNO Reductase. 396 μL of the Enzyme/NADH solution is added to the cuvette to start the reaction. The cuvette is placed in the Cary 3E UV/Visible Spectrophotometer and the change in 340 nm absorbance/min at 25° C. is recorded for 3 minutes. The assays are done in triplicate for each compound concentration. IC50's for each compound are calculated using the standard curve analysis in the Enzyme Kinetics Module of SigmaPlot.
Final assay conditions: 100 mM NaPO4, pH 7.4, 0.240 mM GSNO, 0.300 mM NADH, 0.5 μg/mL GSNO Reductase, and 1% DMSO. Final volume: 800 μL/cuvette.
As a reminder, the IC50 is the concentration needed to halve the response being measured. As to `O=C(O)c1ccc(-c2c(C(F)(F)F)oc3cc(O)ccc3c2=O)cc1Cl` [IV-18], the IC50 is less than 0.1 µM.
As for `O=c1c(-c2ccc(-c3nnn[nH]3)cc2Cl)c(C(F)(F)F)oc2cc(O)ccc12` [IV-39], the IC50 is less than 0.1 µM.
The same measure, in the same setting: the figure for `N#Cc1cc(C(=O)O)ccc1-c1ccc2cc(O)ccc2n1` [Compound I-49, 3-cyano-4-(6-hydroxyquinolin-2-yl)benzoic acid] is less than 0.1 µM.
Same read-out and setting: next, `Cc1cc(C(=O)O)ccc1-c1ncc2cc(O)ccc2n1` [II-4]: less than 0.1 µM; `N#Cc1cc(C(=O)O)ccc1-c1ccc2cc(O)ccc2c1` [III-6]: less than 0.1 µM.
As to `COc1c(-c2ccc(C(=O)O)cc2)ccc2cc(O)ccc12` [III-24, 4-(6-hydroxy-1-methoxynaphthalen-2-yl)benzoic acid], the IC50 is less than 0.1 µM.
Same read-out and setting: the figure for `O=C(O)c1ccc(Oc2c(-c3ccc(Cl)cc3)oc3cc(O)ccc3c2=O)cc1` [Compound V-7, 4-(2-(4-chlorophenyl)-7-hydroxy-4-oxo-4H-chromen-3-yloxy)benzoic acid] is 1 to 10 µM.
Turning to `O=C(O)c1ccc(-c2ccc3cc(O)ccc3c2)c(C(F)(F)F)c1` [III-20, 4-(6-hydroxynaphthalen-2-yl)-3-(trifluoromethyl)benzoic acid], the IC50 is less than 0.1 µM.
Same read-out and setting: the figure for `O=C(O)c1ccc(CC(=O)c2ccc(O)cc2)cc1` [VI-11, 4-(2-(4-hydroxyphenyl)-2-oxoethyl)benzoic acid] is 0.1 to 1 µM; for `O=C(O)c1ccc(-c2ccc3cc(O)ccc3c2)nc1` [III-7] it is 0.1 to 1 µM.
Still for that read-out and setting: the figure for `O=C(O)c1csc(-c2c(C(F)(F)F)oc3cc(O)ccc3c2=O)c1` [IV-35] is 0.1 to 1 µM; for `O=C(C[C@H]1CC[C@H](C(=O)O)CC1)c1ccc(O)cc1O` [VI-1, (trans)-4-(2-(2,4-dihydroxyphenyl)-2-oxoethyl)cyclohexanecarboxylic acid] it is 0.1 to 1 µM; for `O=c1c(Oc2ccc([N+](=O)[O-])c(O)c2)c(C(F)(F)F)oc2cc(O)ccc12` [Compound V-16, 7-hydroxy-3-(3-hydroxy-4-nitrophenoxy)-2-(trifluoromethyl)-4H-chromen-4-one] it is less than 0.1 µM.
Still for that read-out and setting: next, `COc1cc(C(=O)O)ccc1-c1cc(F)c2c(F)c(O)ccc2c1` [III-43, 4-(4,5-difluoro-6-hydroxynaphthalen-2-yl)-3-methoxybenzoic acid]: less than 0.1 µM.
As to `O=C(O)c1ccc(-c2ccc3c(F)c(O)ccc3n2)c(F)c1` [Compound I-56], the IC50 was less than 0.1 µM.
Take `O=C(O)c1ccc(-c2ccc3cc(O)ccc3n2)cc1F` [Compound I-10]: the IC50 is less than 0.1 µM.
As for `O=c1nc(-c2ccc(-c3ccc4cc(O)ccc4n3)cc2F)[nH]o1` [Compound I-20], the half-maximal inhibitory concentration (IC50) is less than 0.1 µM.
As to `Cc1cc2cc(O)ccc2cc1-c1ccc(C(=O)O)cc1` [III-27, 4-(6-hydroxy-3-methylnaphthalen-2-yl)benzoic acid], the IC50 was less than 0.1 µM.
On the same count and under the same terms, next, `O=C(O)C1CC=C(c2ccc3cc(O)ccc3n2)CC1` (stereo not drawn) [Compound I-16]: 0.1 to 1 µM; `O=c1[nH]c(-c2ccc(-c3c(C(F)(F)F)oc4cc(O)ccc4c3=O)c(F)c2)no1` [IV-41]: less than 0.1 µM.
On the same count and under the same terms, next, `O=C(O)c1ncc(-c2ccc3cc(O)ccc3c2)cn1` [III-14]: 1 to 10 µM; `O=C(O)c1ccc(C[S+]([O-])c2ccc(O)cc2)c(F)c1` (stereo not drawn) [VI-25, 3-fluoro-4-(((4-hydroxyphenyl)sulfinyl)methyl)benzoic acid]: 0.1 to 1 µM; `O=C(O)c1ccc(-c2ccc3cc(O)ccc3[n+]2[O-])c(Cl)c1` [Compound I-50, 2-(4-carboxy-2-chlorophenyl)-6-hydroxyquinoline 1-oxide]: 0.1 to 1 µM.
As for `O=C(O)c1ccc(CC(=O)c2ccc(O)c(F)c2F)cc1` [VI-5, 4-(2-(2,3-difluoro-4-hydroxyphenyl)-2-oxoethyl)benzoic acid], the half-inhibitory concentration (IC50) was less than 0.1 µM.
With `O=C(O)c1ccc(-c2ccc3cc(O)ccc3c2)cc1O` [III-35, 2-hydroxy-4-(6-hydroxynaphthalen-2-yl)benzoic acid], the IC50 was less than 0.1 µM.
Same read-out and setting: next, `N#Cc1c(-c2ccc(C(=O)O)cc2F)ccc2cc(O)ccc12` [III-29]: less than 0.1 µM.
Consider `O=C(O)c1ccc(-c2ccc3c(Br)c(O)ccc3n2)cc1` [Compound I-45, 4-(5-bromo-6-hydroxyquinolin-2-yl)benzoic acid], for which the IC50 lay within 0.1 to 1 µM.
As for `O=C(O)c1ccc(CC(=O)c2ccc(O)cc2)c(F)c1` [VI-9, 3-fluoro-4-(2-(4-hydroxyphenyl)-2-oxoethyl)benzoic acid], the half-maximal inhibitory concentration (IC50) was less than 0.1 µM.
Consider `O=c1c(-c2ccc(-c3nnn[nH]3)cc2)c(C(F)F)oc2cc(O)ccc12` [IV-27], for which the 50% inhibitory concentration (IC50) is less than 0.1 µM.
Same read-out and setting: the figure for `CN(C)c1cc(-c2ccc(C(=O)O)cc2)nc2ccc(O)cc12` [Compound I-47, 4-(4-(dimethylamino)-6-hydroxyquinolin-2-yl)benzoic acid] is 0.1 to 1 µM; for `O=C(O)c1ccc(-c2ncc3cc(O)ccc3n2)cc1` [II-1] it is less than 0.1 µM.
`O=C(O)c1ccc(-c2c(C(F)(F)F)oc3cc(O)ccc3c2=O)cc1F` [IV-14]: the IC50 is less than 0.1 µM.
The same measure, in the same setting: the figure for `Cc1cc(C(=O)O)ccc1-c1ccc2c(F)c(O)ccc2n1` [Compound I-58] is less than 0.1 µM; for `O=C(O)c1ccc(COc2ccc(O)c(F)c2F)c(F)c1` [VI-21, 4-((2,3-difluoro-4-hydroxyphenoxy)methyl)-3-fluorobenzoic acid] it is less than 0.1 µM.
The same measure, in the same setting: next, `O=C(O)C1CCN(c2nc3ccc(O)cc3nc2C(F)(F)F)CC1` [II-11]: less than 0.1 µM; `O=C(O)c1ccc(Oc2coc3cc(O)ccc3c2=O)cc1` [Compound V-12, 4-(7-hydroxy-4-oxo-4H-chromen-3-yloxy)benzoic acid]: 1 to 10 µM.

The same experiment, now with this note: Table 7; GSNOR inhibition, IC50 range class a/b/c; read-out: IC50.
For the compound `O=C(O)c1ccc(-c2ccc(-c3ccc(O)cc3)s2)cc1` [VII-4, 4-(5-(4-hydroxyphenyl)thiophen-2-yl)benzoic acid], the half-maximal inhibitory concentration (IC50) was 0.1 to 1 µM.
The same measure, in the same setting: next, `O=C(O)c1ccc(-c2ccc(-c3ccc(O)c(F)c3)s2)cc1` [VII-7, 4-(5-(3-fluoro-4-hydroxyphenyl)thiophen-2-yl)benzoic acid]: 0.1 to 1 µM; `CCOCCCn1c(-c2ccc(O)cc2)ccc1-c1ccc(C(=O)O)cc1` [VII-36, 4-(1-(3-ethoxypropyl)-5-(4-hydroxyphenyl)-1H-pyrrol-2-yl)benzoic acid]: less than 0.1 µM.
Still for that read-out and setting: the figure for `O=C(O)c1ccc(-c2csc(-c3ccc(O)cc3)n2)s1` [VII-9, 5-(2-(4-hydroxyphenyl)thiazol-4-yl)thiophene-2-carboxylic acid] is less than 0.1 µM.
Turning to `O=C(O)c1ccc(-c2ccc(-c3ccc(O)cc3)[nH]2)cc1` [VII-23, 4-(5-(4-hydroxyphenyl)-1H-pyrrol-2-yl)benzoic acid], the IC50 was in the range of 1 to 10 µM.
Consider `COCCn1c(-c2ccc(O)cc2)ccc1-c1ccc(C(=O)O)cc1` [VII-33, 4-(5-(4-hydroxyphenyl)-1-(2-methoxyethyl)-1H-pyrrol-2-yl)benzoic acid], for which the IC50 lay within 0.1 to 1 µM.
Still for that read-out and setting: the figure for `O=C(O)c1ccc(-c2csc(-c3ccc(O)c(F)c3)n2)s1` [VII-3, 5-(2-(3-fluoro-4-hydroxyphenyl)thiazol-4-yl)thiophene-2-carboxylic acid] is less than 0.1 µM; for `O=C(O)c1ccc(-c2cnc(-c3ccc(O)cc3)s2)s1` [VII-16, 5-(2-(4-hydroxyphenyl)thiazol-5-yl)thiophene-2-carboxylic acid] it is less than 0.1 µM.
Still for that read-out and setting: the figure for `CCCCn1c(-c2ccc(O)cc2)ccc1-c1ccc(C(=O)O)s1` [VII-26, 5-(1-butyl-5-(4-hydroxyphenyl)-1H-pyrrol-2-yl)thiophene-2-carboxylic acid] is 0.1 to 1 µM.

The experiment is the same for the next values; noted with them: Table 8; GSNOR inhibition, IC50 range class a/b/c; read-out: IC50.
`O=c1c2ccc(O)cc2ccn1[C@H]1CC[C@H](C(=O)O)CC1` [VIII-14, (trans)-4-(6-hydroxy-1-oxoisoquinolin-2(1H)-yl)cyclohexanecarboxylic acid]: the IC50 lay within 1 to 10 µM.
In the case of `O=C(O)c1ccc(N2CCc3cc(O)ccc3C2=O)cc1` [VIII-4, 4-(6-hydroxy-1-oxo-3,4-dihydroisoquinolin-2(1H)-yl)benzoic acid], the IC50 was less than 0.1 µM.
As for `O=C(O)c1ccc(-n2ccc3cc(O)ccc3c2=O)cc1` [VIII-3, 4-(6-hydroxy-1-oxoisoquinolin-2(1H)-yl)benzoic acid], the half-maximal inhibitory concentration (IC50) was less than 0.1 µM.
